Source: PubChem BioAssay (NCI)
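Dose response: 5 concentrations. Exposure: 48 h. Format: 96-well plates. Endpoint: linear interpolation; highest concentration if not reached. TGI: total growth inhibition.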 Where a SMILES comes first, the peptide text is derived from it. [ ]: non-standard residue; d: D form. The star is where a group is joined. ξ: configuration not given here. X16 = COC1=CC(=O)N(C(=O)C(O*)C(C)C)C1Cc1ccccc1; ξNMe2Val = CC(C)C(C(=O)*)N(C)C; NMeV = CN[CH](C(=O)O)C(C)C

Legend:
Experiment in all cases: NCI tumour cell line growth inhibition, 48 h
[1] = test system: P388/ADR leukemia
[2] = test system: P388 leukemia
[3] = test system: SN12K1 renal
[4] = test system: LXFL 529 NSCLC
[5] = test system: RXF-631 renal

Structure (SMILES)	TGI [1]	TGI [3]	TGI [4]	other results
C=C/C(C)=C/[C@H](C)C(=O)C[C@H](O)CC1CC(=O)NC(=O)C1	> 100 µM	> 100 µM		TGI [2]: > 100 µM
CN(C)[C@@H]1C(=O)C(C(N)=O)=C(O)[C@@]2(O)C(=O)C3=C(O)c4c(O)cccc4C[C@H]3C[C@@H]12			3.88 µM	
c1ccc2[nH]c(-c3nc4ccccc4o3)nc2c1			> 100 µM	
Nc1cc2c(cc1[N+](=O)[O-])[nH]c1c(-c3ccccc3)nccc12	44.5 µM	67.7 µM		TGI [2]: 41 µM
CC1=C/C(=C(\c2ccc(N(C)C)cc2)c2ccc([N+](C)(C)C)cc2)C=CC1=[N+](C)C			22.1 µM	TGI [5]: 21.4 µM
Cc1ccc(-c2cc(-c3ccco3)nc(N)n2)o1			> 100 µM	
O=c1[nH]cnc2c1nnn2CCCn1nnc2c(=O)[nH]cnc21			> 100 µM	
Cc1ccc(OP2(=O)Oc3ccc4ccccc4c3CN2c2ccc(Cl)cc2)cc1C (stereo unspecified)	> 100 µM	> 100 µM		TGI [2]: > 100 µM
Oc1c(Cl)c2nccnc2c2ccccc12			> 100 µM	
On1c(-c2ccccc2)c(-c2c(-c3ccccc3)n(O)c3ccccc23)c2ccccc21			20 µM	
c1cnc2c(c1)-n1cccc1C1(CCOCC1)NN2			> 100 µM	
C=C1CC2CC[C@@]34C[C@@H]5O[C@@H]6C(O[C@H]7CC[C@H](CC(=O)OC8[C@@H](C)C9OC%10C[C@]%11(C[C@@H]%12O[C@@]%13(C[C@@H](C)[C@@H]%12O%11)C[C@H](C)[C@@H]%11OC%12CC(C(O)CO)OC%12C[C@@H]%11O%13)OC%10CC9O[C@H]8C[C@H]8O[C@@H](CC[C@@H]1O2)C[C@@H](C)C8=C)O[C@@H]7[C@@H]6O3)C5O4 (stereo partly specified)	0.13 µM	0.0162 µM		TGI [5]: 0.0034 µM; TGI [2]: 0.0156 µM
O=C(NCCNCCO)N/N=C/c1cccc([N+](=O)[O-])c1			> 100 µM	
COC1=CC(=O)N(C(=O)C(OC(=O)C2CCCN2C(=O)C2CCCN2C(=O)C(C(C)C)N(C)C(=O)C(NC(=O)C(C(C)C)N(C)C)C(C)C)C(C)C)C1Cc1ccccc1 (stereo unspecified) (ξNMe2Val-V[NMeV]PP-X16; configuration not given here)	0.556 µM	0.000527 µM		
O=C(CCN1CCCCC1CCO)Nc1ccc2c(c1)C(=O)c1ccc(NC(=O)CCN3CCCCC3CCO)cc1C2=O (stereo unspecified)			5.65 µM	
